Assay results as given in patent US10800790B2, “Sesquiterpenoid STAT3 inhibitors” (University of Hawaii, priority 2013, dated 2020).

Experiments:
pSTAT5 = experiment: Immunoblotting of EGF-induced pSTAT5 in NIH3T3/hEGFR; settings: 5 micromolar
Procedure: To determine the specificity of agents, mouse fibroblasts over-expressing the human EGF receptor (NIH3T3/hEGFR) were treated with the compounds and stimulated with EGF.

[1] = test system: MDA-MB-231 breast cancer cells; experiment: CyQuant cell viability/proliferation assay, MDA-MB-231; format: cell-based, human; set-up: key to Activity against 231: +, active; −, no activity; +/−, poorly active; settings: Table 1 grade; Table 1/FIG. 2 compound numbering
Procedure: (§1) The cell viability assay was performed as previously reported (Zhang X, et al. (2010)). Briefly, a 10 millimolar concentration stock solution in dimethylsulfoxide (DMSO) of the tested molecule was first prepared. Next, the stock solution was diluted down to various working solutions in water. Thus, a formulation of the tested compound in a DMSO/water mixture was used to test for cell viability. (A novel small-molecule disrupts STAT3 SH2 domainphosphotyrosine interactions and STAT3-dependent tumor processes, Biochem Pharmacol 79:1398-1409; Zhao W, Jaganathan S, & Turkson J (2010), A cell-permeable STAT3 SH2 domain mimetic inhibits STAT3 activation and induces antitumor cell effects in vitro. J Biol Chem. 285:35855-35865). Cells (U251MG, MDA-MB-231 or NIH3T3) were obtained from ATCC (Manassas, Va.) and were cultured in 96-well plates at 2,000 cells per well for 24 h and were treated with compounds (5 micromolar concentration) for 72 h. Cell viabilty was determined using CyQuant assay, according to the manufacturer's (Invitrogen, CA, USA) instructions. Relative viability of the treated cells was normalized to the DMSO-treated control cells.

[2] = test system: GSH levels in U251 MG cells; experiment: Glutathione (GSH) levels in U251 MG cells
Procedure: Reduced glutathione (GSH) and oxidized glutathione disulfide (GSSG) levels were assayed using a commercially available kit (Cayman Chemical, Ann Arbor, Mich.) and following the manufacturer's instructions.

PTP1B = experiment: Immunoblotting of PTP1B levels in U251MG cells; format: cell-based, human; settings: 5 micromolar
Procedure: To further investigate into the mechanism of inhibition of STAT3 induction, effects on protein tyrosine […] (PTPs) were determined. […] Instead, the potent inhibitory effects of agents (5 micromolar) countered the robust pY705STAT3 induction by orthovanadate alone.
FIGS. 13A-13C show analyses of STAT1, STAT3, STAT5, Akt, Erk1/2, JAK2, SOCS, and PTP1B activation or STAT3-EGFR association and the effects of active hirsutinolides and sodium orthovanadate. (A-C) SDS-PAGE and Western blotting analysis of whole-cell lysates of equal total protein prepared from (A) EGF-stimulated NIH3T3/hEGFR cells pre-treated with the 5 micromolar of the designated agents for 24 h and probing for pY705STAT3, STAT3, pY701 STAT1, STAT1, pY694STAT5, STAT5 or GAPDH, or the human glioma, U251MG cells treated with 5 micromolar of the designated inhibitors for (B) 0-32 h and probing for pS-Akt, Akt, pErk1/2, Erk1/2, pJAK2, JAK2, SOCS3, PTP1B, pSTAT3, STAT3, β-actin or GAPDH; or (C) 3 h in the absence or presence of increasing concentration of Na3VO4 and probing for pSTAT3, STAT3 or GAPDH/.

[3] = test system: STAT3 DNA-binding activity; experiment: STAT3 DNA-binding activity (EMSA) of nuclear extracts from treated tumor cells; settings: 5 micromolar, time course
Procedure: Positions of STATs:DNA complexes or proteins in gel are labeled; control lanes (0) represent nuclear extracts or whole-cell lysates prepared from 0.05% DMSO-treated cells.
Nuclear extract preparations and DNA-binding/electrophoretic mobility shift assay (EMSA) were carried out as previously described (Xu, supra). Nuclear extract preparations and DNA-binding activity/electrophoretic mobility shift assay (EMSA) were carried out as previously described. U251 MG and MDA-MB-231 cells culture were pretreated with different concentrations of the compounds for the indicated period and then harvested for nuclear extract preparation and DNA-binding assay with EMSA analysis. […] Except where indicated, nuclear extracts were pre-incubated with compound for 30 min at room temperature prior to incubation with the radiolabeled probe for 30 min at 30° C. before subjecting to EMSA analysis.

U251MG cells [4] = experiment: Wound healing assay for migration; format: cell-based, human; settings: 0-5 micromolar, 19 h, viability unaffected
Procedure: Viable cell numbers at 19 h post-treatment were counted and are represented (right panel). Values are the mean and S.D. of 3-4 independent determinations. Data are representative of 3 independent determinations.
This assay was performed as previously reported. (Xu, Y., supra). Briefly, subconfluent cultures of U251MG cells in 6-well plates were wounded using pipette tips and treated with compound or vehicle (DMSO) and allowed to migrate into the denuded area over a 19 h period. The migration of cells was visualized at a 10× magnification using an Axiovert 200 inverted fluorescence microscope (Zeiss), with pictures taken using a mounted Canon Powershot A640 digital camera.

U251MG cells [5] = experiment: Colony survival assay, U251MG; format: cell-based, human
Procedure: The effect of the isolated or synthesized compounds in a colony survival assay was performed.
This assay was performed as previously reported (Xu, Y., supra). The assay was performed as previously reported. Briefly, cells were seeded as single-cell in 6-well plates (250 cells per well), treated once the next day with compounds for 72 h, and allowed to grow until large colonies were visible. Colonies were stained with crystal violet for 4 h and counted with FluorChem imaging system (Protein Simple, Santa Clara, Calif.).

[6] = test system: normal NIH3T3 mouse fibroblasts; experiment: CyQuant cell viability/proliferation assay, NIH3T3; format: cell-based; set-up: key to Activity against 3T3: +, active; −, no activity; +/−, poorly active; settings: Table 1 grade; Table 1/FIG. 2 compound numbering
Procedure: as §1

[7] = test system: pY705STAT3 in U251MG or MDA-MB-231 cells; experiment: Immunoblotting of pY705STAT3 in treated tumor cells
Procedure: Positions of STATs:DNA complexes or proteins in gel are labeled; control lanes (0) represent nuclear extracts or whole-cell lysates prepared from 0.05% DMSO-treated cells. Data are representative of at least three to four independent determinations.
Lysates of equal total protein prepared in the lysis buffer (50 mM Hepes, pH 7.5, 150 mM NaCl, 2 mM EDTA, 1% Triton X-100, 0.1% SDS), were subjected to IP or Western blotting analysis. Antibodies against STAT3, pY705STAT3, Src, pY416Src, Erk1/2, and pT202/Y204Erk1/2 and GAPDH (Cell Signaling Technology, Danvers, Mass.), and anti-β-actin, and HSP105 (Santa Cruz Biotechnology, Dallas, Tex.) are from the designated sources.
Whole-cell lysates were prepared in boiling SDS sample loading buffer to extract total proteins, as reported previously. […] Nitrocellulose membranes were probed with primary antibodies, and the detection of horseradish peroxidase-conjugated secondary antibodies by enhanced chemiluminescence (Amersham) was performed. Antibodies used were monoclonal anti-pYSTAT3 and anti-STAT3 antibodies (Cell Signaling Technology, Danvers, Mass.).

(4S,6R,E)-4,7-dihydroxy-6,10-dimethyl-2-oxo-2,4,5,6,7,8,9,10-octahydro-7,10-epoxycyclodeca[b]furan-3-yl)methyl(E)-2-methylbut-2-enoate [Compound 22]
Effect on EGF-induced pSTAT5 (pSTAT5): no effects | Activity against 231 [1]: + | Effect on GSH levels [2]: did not repress GSH levels | Effect on PTP1B levels (PTP1B): little or no effects | Inhibition of STAT3 DNA-binding activity in treated cells (EMSA) [3]: early inhibition at 15-30 min | Cell migration into the denuded area (U251MG cells [4]): suppressed the numbers of U251 cells migrating into the denuded area | Preferential effect on colony survival of U251MG and MDA-MB231 over MCF-7 (U251MG cells [5]): 2.5 fold | Activity against 3T3 [6]: +/− | Effect on pY705STAT3 / STAT3 activity (immunoblot), in words ([7]; 5 micromolar, 0-24 h, U251MG or MDA-MB-231, Table 1/FIG. 2 numbering): early inhibition at 15-30 min | pY705STAT3 inhibition in combination with sodium orthovanadate ([7]; U251MG, 5 micromolar compound, 10-300 micromolar orthovanadate, 3 h): failed to overcome the inhibitory effect
